Read-outs that look alike come from different tables or passages of the source.
Assay: RT-S9 substrate depletion assay, individual compounds, with IVIVE
Conditions: for CLint,S9 / CLint,in vivo set to LOD/3 for extrapolation: s9
Experimental: The in vitro intrinsic clearance by the S9 fraction of rainbow trout liver was measured for the same 11 anionic surfactants used in the BCF experiment as separate compounds. […] An established RT-S9 substrate depletion assay was employed,[25]−[27] predating the currently available OECD guideline 319B.[28] A single batch of the characterized liver homogenate material was prepared at the US EPA lab in Duluth and shipped on dry ice to the testing facilities at the University of Amsterdam. The test was conducted using the same method applied for a series of cationic surfactants in Droge et al.[29] and is summarized together with the in vitro–in vivo extrapolation in Text S4.
Text S4: Trout liver S9 parent depletion assay details and IVIVE
Liver tissue was separately pooled from the same five rainbow trout (three males/two females, ~300 g, liver weight ~3 g) used also for the RT-S9 study on a series of cationic surfactants (Droge et al., 2021b). The liver sample was homogenized in an appropriate buffer and then centrifuged to yield a 13,000 x g supernatant (the ‘S9 fraction’, lacking only mitochondrial fractions). No further refinement towards microsomal fractions was made to remove cytosolic and lysosomal components.
Upon arrival at the University of Amsterdam the liver
S9 material was stored in a -80 °C freezer until use.
Individual chemicals were first dissolved in methanol and then further diluted to 20% methanol in 100 mM phosphate buffer to make a ~20 µM stock solution, which was then spiked as 10 µL in 190 µL of active S9 mixture. The active S9 mixture consisted of 100 mM potassium phosphate-buffered saline (PPBS) adjusted to pH 7.8, 2 mM β-NADPH, 2 mM UDPGA, 0.1 mM PAPS, 5 mM GSH, 10 μg/mL alamethicin (in methanol carrier; 0.1% v/v final concentration), and 2 mg/mL S9 protein. The substrate depletion assays were performed using the multiple vial method described in OECD TG 319B, employing two or three separately spiked series.
Reactions were performed at 11 °C in a temperature-controlled water bath (B. Braun Frigomix-R) that was placed on a 2 cm travel path shaker (Gerhardt LS 10) set at 45 rpm. As a positive […]
alkylsulfonates, no additional assays with inactivated RT-S9 were performed.
Reactions were quenched with 600 µL ice-cold acetonitrile. After 10 s vortexing and 5 min centrifugation (Hermle Z300, 2500 rpm), 100 µL clear supernatant was transferred into 300 µL glass inserts placed in new autosampler vials, and mixed with 100 µL pure water. Concentrations were measured using a Prominence UFLC-XR system (Shimadzu) coupled to a tandem mass spectrometer (QTRAP 4000, Applied Biosystems) with a Turbo Ion spray source operated at 400 ◦C. For chromatographic separations, a 100 x 2.1mm x 2.7 µm Supelco Ascentis Express column was used (40 °C), with eluent A: pure water with 2 mM ammonium acetate, and eluent […]
prepared in 50% acetonitrile/water, calibration curves used covered at least four points in a log-linear range. The lowest external standard to fit the log-linear calibration curve served as limit of quantification, requiring a peak of at least 10x the average noise.
Each vial was treated as an independent vial with recorded exposure time. Log-transformed concentration data of the parent compound were plotted against exposure time (min) and analysed using Graphpad PRISM 8. […]
the slope (min-1) was multiplied by -2.3 and by 60 (min h-1) to obtain a first order depletion rate […]
Extrapolation of kdep to whole body rate biotransformation rate constant (kB-S9) The basic approach to extrapolate first order depletion rate constants (k dep) to whole body

[1] = both, rainbow trout, 1 µM, pH 7.8

| SMILES | kB-S9, biotransformation rate constant from in vitro RT-S9 assay | CLint,S9 | further results |
| --- | --- | --- | --- |
| CCCCCCCCCCc1ccc(S(=O)(=O)O)cc1 [C10-1-LAS, 1-n-(p-sulfophenyl)decane] | 0.041 (0.037–0.045) h^–1 | 0.61 mL h-1 mg protein-1 |  |
| CCCCCCCCCCS(=O)(=O)O [C10SO3, decylsulfonate] | 0.366 (0.33–0.40) h^–1 | 4.54 mL h-1 mg protein-1 |  |
| CCCCCCCCCCCS(=O)(=O)O [C11SO3, undecylsulfonate] | 0.225 (0.21–0.24) h^–1 | 3.05 mL h-1 mg protein-1 |  |
| CCCCCCCCCCCOS(=O)(=O)O [C11SO4, undecylsulfate] | 0.151 (0.136–0.166) h^–1 | 2.81 mL h-1 mg protein-1 |  |
| CCCCCCCCCCCCOCCOCCOCCOCCOS(=O)(=O)O [C12-EO4-SO4, dodecyltetraethoxysulfate] | 0.084 (0.059–0.109) h^–1 | 1.30 mL h-1 mg protein-1 |  |
| CCCCCCCCCCCCCS(=O)(=O)O [C13SO3, tridecylsulfonate] | 0.032 (0.028–0.036) h^–1 | 0.45 mL h-1 mg protein-1 |  |
| CCCCCCCCCCCCCOS(=O)(=O)O [C13SO4, tridecylsulfate] | 0.028 (0.022–0.034) h^–1 | 0.40 mL h-1 mg protein-1 |  |
| CCCCCCCCCCCCCCS(=O)(=O)O [C14SO3, tetradecylsulfonate] | 0.002 ^h h^–1 | n.s. | factor by which kB-S9 was less than kB-BCF: 11; reaction rate set to LOD/3 for extrapolation: 0.05 h⁻¹; CLint,in vivo set to LOD/3 for extrapolation: ~ 3.5 mL h-1 g liver-1 |
| CCCCCCCCCCCCCCCCS(=O)(=O)O [C16SO3, hexadecylsulfonate] | 0.002 ^h h^–1 | n.s. | reaction rate set to LOD/3 for extrapolation: 0.05 h⁻¹; CLint,in vivo set to LOD/3 for extrapolation: ~ 3.5 mL h-1 g liver-1 |
| CCCCC(CC)COC(=O)CC(C(=O)OCC(CC)CCCC)S(=O)(=O)O (stereo not drawn) [DOSS, bis(2-ethylhexyl)sulfosuccinate] |  | 0.14 mL h-1 mg protein-1 | factor by which kB-S9 was less than kB-BCF [1]: 6; kB-S9, biotransformation rate constant from in vitro RT-S9 assay [1]: 0.011 (0.009–0.013) h^–1; Slope of depletion curve (log concentration vs time) (tested individually, 2 mg/mL S9 protein, 11 °C): -0.0021 min-1 |

Reference: publication PMC9118553, “In Vivo Bioconcentration of 10 Anionic Surfactants in Rainbow Trout Explained by In Vitro Data on Partitioning and S9 Clearance” (Environmental Science & Technology, 2022)
